From PubChem BioAssay (NCI) come the findings set out here.

Test systems include DU-145 prostate; NCI-H460 lung; RPMI-8226 leukemia; PC-3 prostate; SNB-75 CNS; M14 melanoma; NCI-H23 lung; KM12 colon; HCT-116 colon; SK-OV-3 ovarian; MALME-3M melanoma.
Holding throughout (experiment): NCI anticancer screen, dose series, 48 h

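Each compound was tested at five concentrations against cells in 96-well plates for 48 hours. TGI marks complete inhibition of growth.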

Regarding `CCOC(=O)c1c(NC(=O)Nc2ccccc2)c(C(N)=O)c2n1CCCCC2`, the TGI with DU-145 prostate, with NCI-H460 lung, in the assay on RPMI-8226 leukemia, in the assay on PC-3 prostate, in the assay on SNB-75 CNS and with M14 melanoma was above 100 µM in each case. For the same compound, the TGI with NCI-H23 lung, in the assay with KM12 colon, in the assay with HCT-116 colon and in the assay on SK-OV-3 ovarian was above 100 µM throughout.

Consider `O=C(Cc1ccccc1)c1ccc2[nH]c(=O)oc2c1`, for which the TGI in the assay with DU-145 prostate was above 100 µM; in the assay on NCI-H460 lung it was above 100 µM; in the assay on RPMI-8226 leukemia, 64.4 µM; in the assay with PC-3 prostate it was above 100 µM; in the assay with SNB-75 CNS, 33.4 µM; with M14 melanoma, above 100 µM. Further, the TGI in the assay on NCI-H23 lung, in the assay with KM12 colon, in the assay with HCT-116 colon and in the assay with SK-OV-3 ovarian was above 100 µM each time.

On to `COC12C=CC(CC1)C1C(=O)c3c(C)c(C)n(C)c3C(=O)C12` (stereo unspecified), for which the TGI in the assay on DU-145 prostate, with NCI-H460 lung, in the assay on RPMI-8226 leukemia, with PC-3 prostate, with SNB-75 CNS and in the assay on M14 melanoma was above 100 µM each time. Moreover, the TGI in the assay on NCI-H23 lung, in the assay on KM12 colon, with HCT-116 colon, in the assay on MALME-3M melanoma and with SK-OV-3 ovarian was above 100 µM each time.

In the case of `CC(=O)OCC1OC(O[C@@H]2c3c(O)c4c(c(O)c3C3=C(NN(c5ccc([N+](=O)[O-])cc5[N+](=O)[O-])[Se]3=O)[C@@]2(C)O)C(=O)c2ccccc2C4=O)C(OC(C)=O)C(OC(C)=O)C1OC(C)=O` (stereo partly specified), the TGI in the assay with DU-145 prostate was 1.84 µM; with NCI-H460 lung, 0.72 µM; in the assay with RPMI-8226 leukemia, 0.372 µM; with PC-3 prostate it was 1.02 µM; in the assay with SNB-75 CNS, 6.24 µM; in the assay on M14 melanoma, 1.6 µM. For the same compound, the TGI with NCI-H23 lung was determined as 0.698 µM; in the assay on KM12 colon, 1.58 µM; with HCT-116 colon it was 0.295 µM; with MALME-3M melanoma, 0.355 µM; in the assay on SK-OV-3 ovarian, 1.52 µM.

In the case of `CN(C)CCO/N=C1/C=C2CC[C@H]3[C@@H]4CC[C@H](O)[C@@]4(C)CC[C@@H]3[C@@]2(C)CC1`, the TGI in the assay on DU-145 prostate was 45.9 µM; in the assay on NCI-H460 lung, 21.9 µM; in the assay on RPMI-8226 leukemia, above 74.9 µM; with PC-3 prostate, above 100 µM; in the assay on SNB-75 CNS it was 10.4 µM; in the assay with M14 melanoma, above 37 µM. For the same compound, the TGI in the assay on NCI-H23 lung worked out at 33.6 µM; in the assay with KM12 colon it was 32.4 µM; in the assay on HCT-116 colon, 31.5 µM; in the assay with SK-OV-3 ovarian, 44.4 µM.

Regarding `CC(C)/C=N\n1c(N)c(C#N)c(C#N)c1C(C)C`, the TGI in the assay with DU-145 prostate is above 100 µM; in the assay with RPMI-8226 leukemia it was 75.2 µM; in the assay on PC-3 prostate, 47.2 µM; with SNB-75 CNS, 40.4 µM; with M14 melanoma it was above 100 µM; in the assay on NCI-H23 lung, 75.4 µM. The TGI with KM12 colon is above 100 µM; in the assay with HCT-116 colon, above 100 µM; in the assay on MALME-3M melanoma it was 98.1 µM; in the assay with SK-OV-3 ovarian, above 100 µM.

Take `O=c1cc(-c2cccc(OC(F)(F)F)c2)[nH]c2cc3c(cc12)OCO3`: the TGI was above 100 µM with DU-145 prostate; 1.1 µM with NCI-H460 lung; 0.271 µM in the assay with RPMI-8226 leukemia; above 100 µM with PC-3 prostate; 17.3 µM in the assay on SNB-75 CNS; above 35.7 µM with M14 melanoma. Also, the TGI is above 100 µM in the assay with NCI-H23 lung, above 100 µM with KM12 colon, 34.6 µM with HCT-116 colon and above 100 µM in the assay on MALME-3M melanoma.

With `Cc1cc(Cl)ccc1N=NC(=O)NNc1ccc(Cl)cc1C`, the TGI in the assay with DU-145 prostate is 23.3 µM; in the assay on NCI-H460 lung, 27.4 µM; in the assay on RPMI-8226 leukemia it was 89.4 µM; in the assay with PC-3 prostate, 22.8 µM; in the assay with SNB-75 CNS, 33.3 µM; in the assay with M14 melanoma, 35.3 µM. In addition, the TGI in the assay with NCI-H23 lung came to 29.8 µM; in the assay with HCT-116 colon, 26.7 µM; in the assay on MALME-3M melanoma, 37.9 µM.

In the case of `COc1ccc(OC)c2nc3c(C(=O)NCCN(C)C)cccc3nc12`, the TGI in the assay on DU-145 prostate was above 100 µM; with NCI-H460 lung, 21.5 µM; with RPMI-8226 leukemia, above 24.2 µM; in the assay on PC-3 prostate, 17.9 µM; in the assay on SNB-75 CNS, 32.4 µM; in the assay on M14 melanoma it was 15.8 µM. Further, the TGI came out at 25.5 µM in the assay on NCI-H23 lung, 22.3 µM in the assay with KM12 colon, 20.6 µM in the assay with HCT-116 colon and 27.3 µM in the assay on MALME-3M melanoma.

As to `NC1CC(=O)c2cc(Br)sc21` (stereo unspecified), the TGI in the assay with DU-145 prostate, in the assay on NCI-H460 lung, in the assay on RPMI-8226 leukemia, in the assay with PC-3 prostate, in the assay on SNB-75 CNS and in the assay on M14 melanoma was above 100 µM throughout. Further, the TGI with KM12 colon, in the assay with HCT-116 colon, in the assay on MALME-3M melanoma and with SK-OV-3 ovarian was above 100 µM each time.

On to `Cc1sc2nc3n(c(=O)c2c1C)N=C(c1ccc(Cl)cc1)CS3`, for which the TGI in the assay on DU-145 prostate, with NCI-H460 lung, with RPMI-8226 leukemia, in the assay on PC-3 prostate, with SNB-75 CNS and with NCI-H23 lung was above 100 µM each time. Moreover, the TGI with KM12 colon, in the assay with HCT-116 colon, with MALME-3M melanoma and with SK-OV-3 ovarian was above 100 µM each time.

With `O=C(Nc1nc(C23CC4CC(CC(C4)C2)C3)cs1)c1cc2cc(Br)cc(Br)c2oc1=O`, the TGI in the assay with DU-145 prostate is above 100 µM; in the assay on NCI-H460 lung it was above 100 µM; in the assay on RPMI-8226 leukemia, above 100 µM; with PC-3 prostate it was above 100 µM; in the assay on SNB-75 CNS, 85.5 µM; with NCI-H23 lung, above 100 µM. Moreover, the TGI with KM12 colon, with HCT-116 colon, in the assay on MALME-3M melanoma and in the assay with SK-OV-3 ovarian was above 100 µM in each case.

For the compound `S=C(Nc1cccc(Cl)c1)Nc1ccccn1`, the TGI in the assay on DU-145 prostate, in the assay with NCI-H460 lung, in the assay with RPMI-8226 leukemia, in the assay on PC-3 prostate, in the assay on SNB-75 CNS and in the assay with M14 melanoma was above 100 µM in each case. Further, the TGI with KM12 colon, with HCT-116 colon, with MALME-3M melanoma and in the assay on SK-OV-3 ovarian was above 100 µM throughout.
